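These data come from cells grown in 96-well plates and exposed to compound for 48 hours at five concentrations. TGI marks complete inhibition of growth.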
Tests used:
Assay in all cases: NCI tumour cell line growth inhibition, 48 h
P388 leukemia = tested on: P388 leukemia
MCF7 breast = tested on: MCF7 breast
UACC-257 melanoma = tested on: UACC-257 melanoma
A549 NSCLC = tested on: A549 NSCLC
DMS 114 small cell lung = tested on: DMS 114 small cell lung
SN12C renal = tested on: SN12C renal
SK-OV-3 ovarian = tested on: SK-OV-3 ovarian
DLD-1 colon = tested on: DLD-1 colon
RXF 393 renal = tested on: RXF 393 renal
K-562 leukemia = tested on: K-562 leukemia
KM12 colon = tested on: KM12 colon
SK-MEL-2 melanoma = tested on: SK-MEL-2 melanoma
CAKI-1 renal = tested on: CAKI-1 renal
SW-620 colon = tested on: SW-620 colon
DMS 273 small cell lung = tested on: DMS 273 small cell lung
HCC-2998 colon = tested on: HCC-2998 colon
SF-268 CNS = tested on: SF-268 CNS
U251 CNS = tested on: U251 CNS
HOP-92 NSCLC = tested on: HOP-92 NSCLC
MALME-3M melanoma = tested on: MALME-3M melanoma
HL-60(TB) leukemia = tested on: HL-60(TB) leukemia
NCI-H226 lung = tested on: NCI-H226 lung
LOX IMVI melanoma = tested on: LOX IMVI melanoma
HT29 colon = tested on: HT29 colon
KM20L2 colon = tested on: KM20L2 colon
COLO 205 colon = tested on: COLO 205 colon
NCI-H23 lung = tested on: NCI-H23 lung
SF-539 CNS = tested on: SF-539 CNS
UACC-62 melanoma = tested on: UACC-62 melanoma
HCT-116 colon = tested on: HCT-116 colon
A498 renal = tested on: A498 renal
UO-31 renal = tested on: UO-31 renal
NCI-H522 lung = tested on: NCI-H522 lung
SNB-78 CNS = tested on: SNB-78 CNS
OVCAR-4 ovarian = tested on: OVCAR-4 ovarian
SNB-75 CNS = tested on: SNB-75 CNS
EKVX NSCLC = tested on: EKVX NSCLC
P388/ADR leukemia = tested on: P388/ADR leukemia
HOP-62 NSCLC = tested on: HOP-62 NSCLC
RPMI-8226 leukemia = tested on: RPMI-8226 leukemia
HOP-18 NSCLC = tested on: HOP-18 NSCLC
SF-295 CNS = tested on: SF-295 CNS
SK-MEL-5 melanoma = tested on: SK-MEL-5 melanoma
CCRF-CEM leukemia = tested on: CCRF-CEM leukemia
NCI-H460 lung = tested on: NCI-H460 lung
IGROV1 ovarian = tested on: IGROV1 ovarian
OVCAR-3 ovarian = tested on: OVCAR-3 ovarian
HCT-15 colon = tested on: HCT-15 colon
NCI/ADR-RES ovarian = tested on: NCI/ADR-RES ovarian
OVCAR-5 ovarian = tested on: OVCAR-5 ovarian
SN12K1 renal = tested on: SN12K1 renal
XF 498 CNS = tested on: XF 498 CNS
M19-MEL melanoma = tested on: M19-MEL melanoma
OVCAR-8 ovarian = tested on: OVCAR-8 ovarian

SMILES: CC1C(O)C2(Oc3cc4c(c5c3[C@@H](CC5O)[C@H]2C)CCC2Cc3nc5c(nc3C[C@@]42C)CC2CCC3C4=C[C@H]6O[C@@]7(O[C@@](C)(CO)C[C@@H]7O)C(C)[C@@]6(O)[C@]4(C)[C@@H](O)CC3[C@]2(C)C5)OC1(C)C (some centres undefined)
- TGI (P388 leukemia): 435 nM
- TGI (MCF7 breast): > 3670 nM
- TGI (UACC-257 melanoma): > 3670 nM
- TGI (A549 NSCLC): 841 nM
- TGI (DMS 114 small cell lung): 904 nM
- TGI (SN12C renal): > 3670 nM
- TGI (SK-OV-3 ovarian): 502 nM
- TGI (DLD-1 colon): > 3670 nM
- TGI (RXF 393 renal): 190 nM
- TGI (K-562 leukemia): 367 nM
- TGI (KM12 colon): > 3670 nM
- TGI (SK-MEL-2 melanoma): 611 nM
- TGI (CAKI-1 renal): 975 nM
- TGI (SW-620 colon): 1050 nM
- TGI (DMS 273 small cell lung): 114 nM
- TGI (HCC-2998 colon): > 3670 nM
- TGI (SF-268 CNS): 641 nM
- TGI (U251 CNS): 114 nM
- TGI (HOP-92 NSCLC): > 3670 nM
- TGI (MALME-3M melanoma): 660 nM
- TGI (HL-60(TB) leukemia): 177 nM
- TGI (NCI-H226 lung): 1230 nM
- TGI (LOX IMVI melanoma): 892 nM
- TGI (HT29 colon): 456 nM
- TGI (KM20L2 colon): 491 nM
- TGI (COLO 205 colon): 609 nM
- TGI (NCI-H23 lung): 654 nM
- TGI (SF-539 CNS): 302 nM
- TGI (UACC-62 melanoma): 231 nM
- TGI (HCT-116 colon): 1020 nM
- TGI (A498 renal): 208 nM
- TGI (UO-31 renal): 3140 nM
- TGI (NCI-H522 lung): 420 nM
- TGI (SNB-78 CNS): 584 nM
- TGI (OVCAR-4 ovarian): > 3670 nM
- TGI (SNB-75 CNS): 84.2 nM
- TGI (EKVX NSCLC): > 3670 nM
- TGI (P388/ADR leukemia): 1840 nM
- TGI (HOP-62 NSCLC): 239 nM
- TGI (RPMI-8226 leukemia): > 3670 nM
- TGI (HOP-18 NSCLC): > 3670 nM
- TGI (SF-295 CNS): 105 nM
- TGI (SK-MEL-5 melanoma): > 3670 nM
- TGI (CCRF-CEM leukemia): 194 nM
- TGI (NCI-H460 lung): 386 nM
- TGI (IGROV1 ovarian): 894 nM
- TGI (OVCAR-3 ovarian): 406 nM
- TGI (HCT-15 colon): > 3670 nM
- TGI (NCI/ADR-RES ovarian): > 3670 nM
- TGI (OVCAR-5 ovarian): 1320 nM
- TGI (SN12K1 renal): 194 nM
- TGI (XF 498 CNS): 343 nM
- TGI (M19-MEL melanoma): > 3670 nM
- TGI (OVCAR-8 ovarian): 1360 nM

Reference: PubChem BioAssay (NCI)
